Laboratory results reported in US20200170259A1, “COMPOSITIONS AND METHODS FOR INDUCING PLANT GENE EXPRESSION AND ALTERING PLANT MICROBIOME COMPOSITION FOR IMPROVED CROP PERFORMANCE” (ADVANCED BIOLOGICAL MARKETING, INC., priority 2018, published 2020).

Key:
maize gene expression = test: Differential gene expression (Blast 2Go DGE) in maize versus control (FIGS. 20-25); format: in vivo
Experimental: Turning to FIGS. 20-24, differential gene expression (Blast 2Go DGE) is measured, wherein the corresponding legend of FIG. 20 presents comparison to a control, wherein the higher scale shown (color or patterned), the higher level of upregulation has occurred.
The lab plants were grown in conical tubes with nutrient bath and to simulate osmotic stress from drought they added a polyethylene glycol (PEG) solution to the tubes.
FIG. 25 depicts a table of changes in corn gene expression versus an untreated control in RNAseq experiments of FIGS. 20-24. Reference to “Lab (sterile, no soil)” is the data from the conical tube experiments of FIG. 23 and FIG. 24.

corn gene expression = test: RNAseq of corn seedlings, variability of gene expression (FIGS. 17-19); format: in vivo
Excerpt: Plants colonized by Trichoderma show highly focused and reproducible patterns of gene expression. Uncolonized plants show highly variable gene expression. We propose that gene expression in plants colonized by Trichoderma responds specifically to that colonization and further that Trichoderma redirects plant gene expression to more targeted biological processes supporting Trichoderma niche development. Gene expression in uncolonized plants responds to the entire set of environmental factors present with relatively little process hierarchy. FIG. 17 depicts a representation of all gene expression in corn seedlings exposed to various seed treatments versus an untreated seed in both standard and drought conditions. FIG. 17 further groups the applicable replicates in order to convey variability, and data sets refer to principal component analysis, in order to evidence variability. All samples with the exception of the Trichoderma metabolite (1-Octene-3-ol), are root apical meristem (RAM) measurements. The sampling occurred from seeds that were grown for seven days before sampling. Observed variability was high in corn gene expression in standard and drought conditions. (See untreated). […] (see SabrEx and Oct). Thus, untreated plants are busy responding to a lot of environmental factors, Trichoderma strain treatment/1-Octene-3-ol treated plants are controlled somewhat by the treatment, which supports findings in previous RNAseq experiments, where correlation is shown by the reduction in microbiome diversity in the field, in the reduction of error bars in field performance data. This is a clear benefit of Trichoderma strain treatment and metabolite (1-Octene-3-ol). Reduction of variable performance in the field is therefore because the plant gene expression has been remodeled or refined by Trichoderma. FIGS. 18A-B depict multidimensional scaling plots of corn gene expression when colonized by Trichoderma, particularly, 2-Trichoderma strain treatment and untreated in unstressed conditions. […]

rhizosphere inhabitants = details: in vivo
Experimental: A survey of rhizosphere inhabitants in a corn trial with control, Trichoderma strain treatment for corn (2 ABM Trichoderma strains), [MUT] (ABM Trichoderma+Bacillus strains), or Trichoderma metabolite (1-Octene-3-ol) seed treatments was made. The organism lifestyle metadata were analyzed for each treatment.

## C=CC(O)CCCCC (centres unmarked) [1-Octene-3-ol]
Maize gene expression
  Shoot responses upregulated: Abiotic stimulus, water deprivation, and chemical stimulus
Corn gene expression; FIGS. 18A-B, unstressed conditions per legend
  Reproducibility of expression pattern (multidimensional scaling plot): generally more reproducible expression pattern than the untreated
Corn gene expression; FIGS. 19A-B, drought conditions per legend
  Reproducibility of expression pattern (multidimensional scaling plot): generally more reproducible expression pattern than the untreated
Corn gene expression; seedlings grown seven days, standard and drought conditions, FIG. 17
  Effect on variability of overall corn gene expression (principal component analysis): focusses gene expression
Rhizosphere inhabitants
  Plant disease resulting from rhizosphere pathogens: did not result in plant disease
